Like-named read-outs stand apart in the source and are kept apart here.
Key:
[1] = tested on: soybean cot-node explants; assay: GUS transient expression on soybean cot-node explants after 5-day co-cultivation with Agrobacterium (T-DNA delivery); assay type: cell-based, Glycine max; details: for infection after co-cultivation (experiment #9): 400 mg/l in co-cultivation media, MN0901, AGL1 and LBA4404
Source text: For each seedling, the roots and the majority of the hypocotyl were removed approximately 3-5 mm below the cotyledonary node by cutting the hypocotyl with a scalpel (Hinchee et al., 1998). The two cotyledons were then separated by cutting vertically through the hypocotyl region resulting in two explants. The epicotyl was subsequently removed on both explants, including all primary leaves and shoot meristems, and both the axillary bud and cotyledonary node were wounded by cutting about 10 times with a scalpel blade perpendicular to the hypocotyl. After all explants in a set were wounded (about 50), they were placed in a 25×100 mm petri plate containing 50 ml co-culture suspension for 30 minutes or inoculated into the 25 ml co-cultivation/Agrobacterium suspension for 30 minutes. The explants were then cultured on an agar-solidified co-culture media (0.5%) either without the addition of a test agent (e.g., cysteine) in 15×100 mm petri plates on top a sterile Whatman®#1 filter paper; five explants per plate with adaxial side down. Five plates were stacked together and wrapped in Parafilm®M then incubated at either 22° C. or 25° C. for 5 days in the dark.
After 5 days, the explants were washed in a liquid shoot induction media (B5 salts, MSIII iron stock, 3% sucrose, 3 mM MES, and filter sterilized B5 vitamins, 1.67 mg/l BAP, 100 mg/l cefotaxime, and 500 mg/l ticarcillin; pH 5.6) to remove excess Agrobacterium. Seven to ten explants from each cysteine level were washed in liquid shoot induction medium and placed in GUS histochemical stain (Jefferson et al., 1987). These explants were scored for GUS transient expression. Five to ten explants from each group were imbedded into a single 25×100 mm petri plate with solid shoot induction media (0.8% agar and agent, e.g., 400 mg/l cysteine) containing PPT concentrations of 1.33 mg/l, 3.33 mg/l, or 5.0 mg/l for selection. The plates were then incubated in a growth chamber with a fluctuating temperature between 18° C.-30° C. under a 18 hours light/6 hours dark cycle at 90-150 μE/m^2s.
The level of infection was scored using the GUS gene as a phenotypic marker immediately after co-culture and again after 4 weeks in shoot induction media. As it can be difficult to score the explants after co-cultivation due to the variation among explants and, in some cases, a complete staining of the target tissues, 6 categories were formed to assess the success of infection: • 4) None=There were no GUS positive sectors on any of the explants; • 5) Very low=Not all explants have GUS positive sectors, however, some have discrete foci usually seen on the hypocotyl or cot-node region. • 6) Low=More than ¾ the explants have GUS positive sectors in discrete foci on the hypocotyl and the cot-node region, but the foci are not numerous (<20). • 7) Medium=More than ½ the explants have significant GUS positive sectors at the cot-node region and hypocotyl, some seen as long lines of cells or larger sectors. • 8) Good=More than ¾ the explants have significant staining at the hypocotyl, the entire cot-node region, and on the cotyledons. […] Almost all explants have regions that are completely GUS positive. To reduce bias, samples were chosen at random and the level of infection scored before noting the treatment conditions. Samples that were between two categories are marked accordingly; those samples that resembled one category more than another were marked with a capital “X” and the other with a lowercase “x”.
Wounded soybean cot-node explants prepared from the cultivar ‘Bert’ were co-cultivated with Agrobacterium on solid co-cultivation medium containing various levels of cysteine for 5 days.

[2] = tested on: Japonica rice meristem cultures; details: individually or in combination; Enríguez-Obregón et al., 1999; cited from earlier work
grape = details: Perl et al., 1996; cited from earlier work
[3] = tested on: soybean cot-node explants; assay: GUS+ sectors, shoots and shoot primordia after 28 days (4 weeks) on shoot induction medium with PPT (stable transformation); assay type: cell-based, Glycine max; details: amended to solid co-cultivation media
Experimental: After 5 days, the explants were washed in a liquid shoot induction media (B5 salts, MSIII iron stock, 3% sucrose, 3 mM MES, and filter sterilized B5 vitamins, 1.67 mg/l BAP, 100 mg/l cefotaxime, and 500 mg/l ticarcillin; pH 5.6) to remove excess Agrobacterium. Seven to ten explants from each cysteine level were washed in liquid shoot induction medium and placed in GUS histochemical stain (Jefferson et al., 1987). These explants were scored for GUS transient expression. Five to ten explants from each group were imbedded into a single 25×100 mm petri plate with solid shoot induction media (0.8% agar and agent, e.g., 400 mg/l cysteine) containing PPT concentrations of 1.33 mg/l, 3.33 mg/l, or 5.0 mg/l for selection. The plates were then incubated in a growth chamber with a fluctuating temperature between 18° C.-30° C. under a 18 hours light/6 hours dark cycle at 90-150 μE/m^2s. The explants were removed from the chamber after 14 days and transferred to fresh shoot induction media containing herbicide selection. During the transfer, the hypocotyl was carefully removed from the developing shoot mass and imbedded into the media with the differentiating tissue flush with the media surface. The plates were placed back into the growth chamber for an additional 2 weeks. At the 4 week time point, explants without de novo shoot production were discarded. The cotyledons were then removed from the differentiating tissue by cutting at the base of the node and the callus trimmed before transferring into shoot elongation media containing MS salts (murashige and Skoog, 1962), MSIII iron stock, 3% sucrose, 3 mM MES, 0.8% agar, and filter sterilized B5 vitamins, 50 mg/l asparagine, 100 mg/l pyroglutamic acid, 1 mg/l zeatin riboside, 0.1 mg/l indole-acetic acid, 0.5 mg/l GA3, 100 mg/l cefotaxime, 500 mg/l ticarcillin, 1.3-5 mg/l PPT; pH 5.6). Also at this time, a percentage of the explants were sliced into about 10 sections and stained for both GUS positive sectors and GUS positive shoots. Every 2 weeks the explants were transferred into new shoot elongation media after removing dead plant tissue and the bottom of the explant cut to encourage shoot elongation of transformed shoots. For the 4 week data, the minimum number of transformation events was recorded. Those explants with a GUS positive sector in the differentiating tissue giving rise to shoots were recorded with the number of transformation events in bold and italicized (FIGS. 2-5). Shoot data was obtained by recording the number of fully formed shoots seen on an explant. […] To determine the effect of adding cysteine to the co-cultivation medium on stable transformation, co-cultured explants were cultured for 28 days on a shoot-inducing medium containing the herbicide, phosphinothricin (PPT). During the 28 day incubation, the explants usually form de novo callus and shoots in the cot-node region in a structure referred to as a callus/shoot pad (FIG. 9). The callus/shoot pads were sliced in approximately 5 mm sections, immersed into GUS histochemical stain, and scored for GUS^+ sectors throughout the callus/shoot pad. […] The formation of transgenic shoot primordia and sectors extending into developing shoot tissues were also scored on 28 day sections of explants co-cultivated on 0 and 400 mg/l cysteine (FIG. 10A). Only those GUS^+ shoot primordia with obvious trichomes, which are characteristic to leaf tissue, or GUS^+ sectors originating and extending into the tissue at the base of developing shoots (referred to hereafter as differentiating tissue) were scored (FIG. 1A2).

[4] = agent added to co-cultivation medium
[5] = Bert, LBA4404 pTOK233, agent in solid co-cultivation media, concentrations of Table 1, 5-day incubation

Structure (SMILES): O=S([O-])([O-])=S.[Na+].[Na+] [Na-thiosulfate, sodium thiosulfate]
- Agrobacterium-mediated T-DNA transfer/delivery into cot-node cells [1]: Increases
- GUS+ staining after co-cultivation [1]: increases

Structure (SMILES): N[C@@H](CSSC[C@H](N)C(=O)O)C(=O)O [L-cystine]
- Agrobacterium-mediated T-DNA transfer/delivery into cot-node cells [1, 4]: Increases

Structure (SMILES): Cc1cc(-c2ccc(S(=O)(=O)O)cc2)c2ccc3c(-c4ccc(S(=O)(=O)O)cc4)cc(C)nc3c2n1 [Bathocuproine disulfonic acid]
- GUS+ staining after co-cultivation [1, 5]: increases
- Agrobacterium-mediated T-DNA transfer/delivery into cot-node cells [1, 4]: Increases
- GUS+ staining with metal chelator ([1]; range from added chelator to added copper or iron): significantly increased

Structure (SMILES): O=C1O[C@H]([C@@H](O)CO)C(O)=C1O [Ascorbic acid]
- damage and viability of Japonica rice meristem cultures [2]: decreased damage and increased viability

Structure (SMILES): O=[N+]([O-])[O-].[Ag+] [silver nitrate]
- damage and viability of Japonica rice meristem cultures [2]: decreased damage and increased viability

Structure (SMILES): O=S(=O)(O)c1ccc(-c2ccnc3c2ccc2c(-c4ccc(S(=O)(=O)O)cc4)ccnc23)cc1 [Bathophenanthroline disulfonic acid]
- GUS+ staining after co-cultivation [1, 5]: increases
- Agrobacterium-mediated T-DNA transfer/delivery into cot-node cells [1, 4]: Increases

Structure (SMILES): CSCC[C@H](N)C(=O)O [Methionine]
- infection after co-cultivation (experiment #9) [1]: did not result in an increase in infection

Structure (SMILES): O[C@H](CS)[C@H](O)CS (racemic) [DTT, dithiothreitol]
- GUS+ staining after co-cultivation [1, 5]: increases
- Agrobacterium-mediated T-DNA transfer/delivery into cot-node cells [1, 4]: increased
- Agrobacterium-mediated T-DNA transfer/delivery into cot-node cells ([1]; agent added to co-cultivation medium, listed as dithiothreitol): Increases
- plant viability after Agrobacterium-mediated transformation of grape (grape): increase plant viability

Structure (SMILES): N[C@@H](CCC(=O)N[C@@H](CS)C(=O)NCC(=O)O)C(=O)O [Glutathione]
- infection after co-cultivation (experiment #9) [1]: did not result in an increase in infection
- GUS+ staining after co-cultivation [1, 5]: increases
- Agrobacterium-mediated T-DNA transfer/delivery into cot-node cells [1, 4]: Increases

Structure (SMILES): N[C@H](CS)C(=O)O [D-cysteine]
- Agrobacterium-mediated T-DNA transfer/delivery into cot-node cells [1, 4]: Increases
- GUS+ foci at the 5-day interval ([1]; amended to solid co-cultivation media): increase
- GUS+ foci at the 28-day interval [3]: increase
